Measured values as given in PMC9794587 (Frontiers in Pharmacology, 2022).
Where two headings read alike, the source gives them in different places. Where no end group is shown, it is not given here.

How the values were obtained:
[1] = in vivo; conditions: both, Sprague-Dawley, rat, iv, t1/2
[2] = in vivo; conditions: both, beagle, dog, t1/2
[3] = can be stored at room temperature; ref Sikiric et al., 2018; cited from earlier work
Excerpt: Body-protective compound (BPC) 157 is a peptide isolated from human gastric juice ([Sikiric et al., 1993]). BPC157 comprises 15 amino acids ([…]) and has a molecular weight of 1419 Da. […] BPC157 exerts a significant protective effect on various tissues and organs, such as th ...

[4] = Pharmacokinetics of BPC157 in beagle dogs after intravenous and intramuscular administration (plasma)
[5] = dog, in vivo, im, t1/2
[6] = mice, rats, rabbits, or dogs; ref Xu et al., 2020; cited from earlier work
Excerpt: Previously, we established a solid-phase synthesis process for BPC157 ([Xue et al., 2004]) and verified its biological activity in rat gastric ulcer models and various skin wound models ([Huang et al., 2015]). […] For evaluating its future clinical use as a therapeutic drug and follow-up clinical trials, the present study was undertaken to evaluate the pharmacokinetics, tissue distribution, metabolis ...

[7] = Pharmacokinetics of BPC157 in SD rats after intravenous and intramuscular administration (plasma, LC-MS/MS); conditions: for bioavailability: in vivo
[8] = rat, in vivo, im, t1/2
[9] = Radiometabolite profiling of [3H]BPC157 in rat plasma, urine, bile and feces (HPLC with radioactive detector, LC-MS/MS); assay type: in vivo, SD rats; conditions: for proportion of the bile sample radioactivity: single IM 100 µg/300 μCi/kg [3H]BPC157, mixed bile samples 0 to 72 h; for proportion of the total fecal radioactivity: single IM 100 µg/300 μCi/kg [3H]BPC157, feces 0 to 72 h; for proportion of the total radioactivity in urine: single IM 100 µg/300 μCi/kg [3H]BPC157, mixed urine samples 8 to 72 h
Procedure: Thirty intact SD rats, six JVC rats, and six BDC rats (half male and half female subjects) were injected intramuscularly with 100 µg/300 μCi/kg of [3H]BPC157. Whole blood and plasma samples of six JVC rats were collected at 0.05, 0.167, 0.5, 1, 2, 4, 8, 24, 48, and 72 h after administration (three males and three females at each time point) for the examination of radio pharmacokinetics of total plasma. Six intact SD rats were used for urinary, fecal, and biliary excretion studies. Urine and fecal samples were collected from each rat at 0–8, 8–24, 24–48, and 48–72 h. Animal carcasses were collected 72 h after administration. Bile excretion was studied in six SD rats with BDC. Bile, urine, and feces were collected 0–72 h after administration. Tissue distribution of BPC was studied in 24 intact SD rats. The rats were euthanized, and tissue samples (brain, heart, kidneys, liver, spleen, lung, stomach, intestine, muscle, grease, ovaries, womb, testicles, and thymus) were collected at 3 min, 10 min, 1 h, and 24 h after administration (three males and three females at each time point). Male SD rats were administered a single IM injection of blank solvent (excipient), and biological samples, including whole blood, plasma, urine, feces, and tissues, were collected for background control. The radioactivity of the plasma, tissue, bile, urinary, and fecal samples was analyzed using a liquid scintillation counter.
Plasma, bile, urine, and fecal samples of intact SD rats or BDC rats after a single administration of [3H]BPC157 were analyzed by HPLC combined with a low-energy radionuclide detection technique to obtain the radiometabolite profiles of [3H]BPC157. The structures of the main metabolites of [3H]BPC157 in rat plasma, bile, urine, and feces were analyzed and identified using LC-MS/MS and standard molecular weight comparison.

[10] = rat feces collected from 0 to 72 h after administration; conditions: SD rats, up to 72 h
[11] = rat bile collected from 0 to 72 h after administration (BDC rats); conditions: SD rats, up to 72 h
[12] = gastric juice; conditions: cited from earlier work
[13] = rat plasma collected after a single IM injection of [3H]BPC157; conditions: SD rats, up to 24 h
[14] = rat urine collected from 0 to 8 h and from 8 to 72 h after administration; conditions: SD rats, up to 72 h
[15] = both, beagle, dog, plasma, im, 6 μg/kg
[16] = both, beagle, dog, plasma, im, 30 μg/kg
[17] = both, beagle, dog, plasma, im, 150 μg/kg
[18] = both, beagle, dog, plasma, iv, 6 μg/kg
[19] = SD rats, single intravenous 20 μg/kg, plasma, LC-MS/MS, mean, n = 6
[20] = both, Sprague-Dawley, rat, plasma, im, 20 μg/kg
[21] = both, Sprague-Dawley, rat, plasma, im, 100 μg/kg
[22] = both, Sprague-Dawley, rat, plasma, im, 500 μg/kg
[23] = both, Sprague-Dawley, rat, plasma, iv, 20 μg/kg

CC(C)C[C@H](NC(=O)CNC(=O)[C@H](C)NC(=O)[C@H](CC(=O)O)NC(=O)[C@H](CC(=O)O)NC(=O)[C@H](C)NC(=O)[C@@H]1CCCN1C(=O)[C@H](CCCCN)NC(=O)CNC(=O)[C@@H]1CCCN1C(=O)[C@@H]1CCCN1C(=O)[C@@H]1CCCN1C(=O)[C@H](CCC(=O)O)NC(=O)CN)C(=O)N[C@H](C(=O)O)C(C)C [BPC157, Gly-Glu-Pro-Pro-Pro-Pro-Gly-Lys-Pro-Ala-Asp-Asp-Ala-Gly-Leu-Val]
half-life [1]: 15.2 min | half-life ([2]; im): 20 ± 5.53 min | half-life ([2]; iv): 5.27 ± 2.25 min | stability [3]: resistant to hydrolysis, enzyme digestion, and even gastric juice | dose proportionality (AUC0–t and Cmax vs dose) ([4]; beagle dogs, IM 6, 30, 150 μg/kg, linear regression): linear pharmacokinetic characteristics | elimination half-life of the prototype drug ([4]; beagle dogs, IV and IM, all doses, plasma): less than 30 min | detection of prototype drug in plasma 4 h after administration ([4]; beagle dogs, plasma, 4 h after administration): could not be detected | Cssav ([4]; beagle dogs, repeated intramuscular 30 μg/kg for seven consecutive days, Cssav = AUC0–t/τ, mean ± SD, n = 6): 0.108 ± 0.0177 ng/mL | Cssmin ([4]; beagle dogs, repeated intramuscular 30 μg/kg for seven consecutive days, Cssmin = (C-48h + C-24h + C0h)/3, mean ± SD, n = 6): 0.00285 ± 0.00698 ng/mL | time for plasma BPC157 to reach its peak ([4]; beagles, IM 6, 30, and 150 μg/kg): ≤ 9 min | AUC(0-inf) [4, 15]: 0.5 ng·h/mL | AUC(0-t) [4, 15]: 0.483 ng·h/mL | Cmax [4, 15]: 1.05 ± 0.429 ng/mL | MRT [4, 15]: 25.8 min | Tmax [4, 15]: 6.33 min | bioavailability [4, 15]: 45.3 ± 24.9% | AUC(0-inf) [4, 16]: 2.73 ng·h/mL | AUC(0-t) [4, 16]: 2.67 ng·h/mL | Cmax [4, 16]: 3.3 ± 0.508 ng/mL | MRT [4, 16]: 37 min | Tmax [4, 16]: 8.67 min | bioavailability [4, 16]: 47.6 ± 18.1% | AUC(0-inf) [4, 17]: 13.8 ng·h/mL | AUC(0-t) [4, 17]: 13.8 ng·h/mL | Cmax [4, 17]: 26.1 ± 7.82 ng/mL | MRT [4, 17]: 31.4 min | Tmax [4, 17]: 8.17 min | bioavailability [4, 17]: 50.6 ± 27% | AUC(0-inf) [4, 18]: 1.28 ng·h/mL | MRT [4, 18]: 2.49 min | clearance [4, 18]: 90.8 ± 40.1 mL/min/kg | Tmax ([4]; dog, in vivo, im): 10.5 min | Vd ([4]; dog, in vivo, iv, 6 ug/kg): 0.243 ± 0.162 L/kg | half-life [5]: 19.6 ± 3.72 min | tolerability, serious toxic effects [6]: well tolerated and did not demonstrate any serious toxic effects | Cssav ([7]; SD rats, repeat intramuscular 100 μg/kg for seven consecutive days, Cssav = AUC0–t/τ, τ is the interval of administration): 0.290 ng/mL | Cssmin ([7]; SD rats, repeat intramuscular 100 μg/kg for seven consecutive days, Cssmin=(C-48h + C-24h + C0h)/3): 0 ng/mL | Tmax ([7]; SD rats, repeat intramuscular 100 μg/kg once a day for seven consecutive days, after last dose, plasma, LC-MS/MS, mean, n = 6): 3.00 min | Tmax ([7]; SD rats, single intramuscular 20 μg/kg, plasma, LC-MS/MS, mean, n = 6): 3 min | Tmax ([7]; SD rats, single intramuscular 100 μg/kg, plasma, LC-MS/MS, mean, n = 6): 3 min | Tmax ([7]; SD rats, single intramuscular 500 μg/kg, plasma, LC-MS/MS, mean, n = 6): 3 min | MRT [7, 19]: 0.727 min | Vss [7, 19]: 0.0364 L/kg | AUC(0-inf) [7, 20]: 1.25 ng·h/mL | AUC(0-t) [7, 20]: 1.25 ng·h/mL | Cmax [7, 20]: 12.3 ng/mL | MRT [7, 20]: 7.27 min | Tmax [7, 20]: 3 min | AUC(0-inf) [7, 21]: 4.83 ng·h/mL | AUC(0-t) [7, 21]: 4.82 ng·h/mL | Cmax [7, 21]: 48.9 ng/mL | MRT [7, 21]: 9.61 min | Tmax [7, 21]: 3 min | AUC(0-inf) [7, 22]: 32.2 ng·h/mL | AUC(0-t) [7, 22]: 32.2 ng·h/mL | Cmax [7, 22]: 141 ng/mL | MRT [7, 22]: 12.8 min | Tmax [7, 22]: 3 min | AUC(0-inf) [7, 23]: 6.67 ng·h/mL | AUC(0-t) [7, 23]: 6.65 ng·h/mL | clearance [7, 23]: 50.1 mL/min/kg | bioavailability ([7]; rat, im, 20 ug/kg): 18.8% | bioavailability ([7]; rat, im, 100 ug/kg): 14.5% | bioavailability ([7]; rat, im, 500 ug/kg): 19.4% | dose proportionality (AUC0–t and Cmax vs dose) ([7]; rats, IM 20, 100, 500 μg/kg, linear regression): linear pharmacokinetic characteristics | time for plasma BPC157 to reach its peak ([7]; rats, IM 20, 100, and 500 μg/kg): ≤ 9 min | elimination half-life of the prototype drug ([7]; rats, IV and IM, all doses, plasma): less than 30 min | detection of prototype drug in plasma 4 h after administration ([7]; rats, plasma, 4 h after administration): could not be detected | half-life [8]: 18.5 min

[3H]O[3H] [tritium water]
proportion of the bile sample radioactivity ([9]; female BDC rats): 91.2% | proportion of the total fecal radioactivity ([9]; female rats): 30.1% | proportion of the total radioactivity in urine ([9]; female rats): 69.5% | proportion of the bile sample radioactivity ([9]; male BDC rats): 91.0% | proportion of the total fecal radioactivity ([9]; male rats): 29.3% | proportion of the total radioactivity in urine ([9]; male rats): 75.3%

GEPPPPGKPADDAGLV
fragment found [10]: [^3H]proline (M1) | fragment found [11]: [^3H]proline (M1), major | not cleaved [12]: resistant to hydrolysis, enzyme digestion, and even gastric juice | fragment found [13]: M1(Proline) and M2 and M3 and M4 and M5 and M6 | fragment found [14]: [^3H]proline (M1), major, 0 to 8 h
